Test results from patent US7662844B2, “Naphthylene derivatives as cytochrome P450 inhibitors” (OSI Pharmaceuticals, Inc., priority 2004, dated 2010).

melting point	SMILES
124 to 126 °C	CN1CCCC1C(c1ccc2cc(OCc3ccccc3)ccc2c1)n1ccnc1 (single isomer, unassigned) [Example 3-30a, 1-[(6-Benzyloxy-naphthalen-2-yl)-(1-methyl-pyrrolidin-2-yl)-methyl]-1H-imidazole]
110 to 112 °C	CN1CCCC1C(c1ccc2cc(OCc3ccccc3)ccc2c1)n1ccnc1 (single isomer, unassigned) [Example 3-30b, 1-[(6-Benzyloxy-naphthalen-2-yl)-(1-methyl-pyrrolidin-2-yl)-methyl]-1H-imidazole]
